PubChem BioAssay AID1259418 (Broad Institute, 2018)
Values joined by “and” are separate entries in the source; they are usually repeats but may differ in a detail not shown here. Equal values may be shown once. Results filed as inconclusive are left out. Active and inactive are the calls of the source.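 How the source made its calls: active means fitted half-maximal concentration of signal decrease at or below twice the sample's top tested concentration; inconclusive means flat curve between -70 and -30 percent, or poor fit; inactive means flat within 30 percent, signal rise, or potency above limit.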

These compounds were tested against T. gondii ME49Luc in IFN-y HeLa, luciferase, 72 h (assay: inhibitors of Toxoplasma growth in IFN-γ-primed HeLa – cell-based, ME49Luc, luciferase, 72 h, dose response (AID 1259418)).

Row | Structure (SMILES) | AC50
1 | Cc1cccc(C(=O)N2CCC(C(=O)NCCc3csc(C)n3)CC2)c1 | 26.4 µM
2 | CNC(=O)NCC1CCC2(CCN(Cc3ccccc3)CC2)CO1 (centres undefined) | 26.3 µM
3 | COc1ccccc1NC(=O)N1CCCCN2[C@H](CO)[C@@H](c3ccc(-c4cccc(C#N)c4)cc3)[C@@H]2C1 | 21.5 µM
4 | Cc1ccc(Cn2c(CN3CCC(C(=O)NCCCN4CCCC4)CC3)cc3ccccc32)cc1 | 13.4 µM
5 | COc1ccc(-c2nc(NCCN3CCC(C)CC3)c3ccccc3n2)cc1 | 9.97 µM
6 | O=C(C[C@H]1CC[C@@H]2[C@H](COC[C@@H](O)CN2Cc2ccc(Oc3ccccc3)cc2)O1)N1CCN(c2ccccc2)CC1 | 24 µM
7 | O=C(Nc1ccc(F)cc1)N1CC(=O)N2[C@@H](CO)[C@@H](c3ccc(-c4cccc(F)c4)cc3)[C@@H]2C1 | 18.5 µM
8 | Cc1ccc(NC(=O)c2cc(-c3cnc(-c4ccccc4)nc3)cn2CC2CC2)cn1 | 10.9 µM
9 | CC(C)CCN1Cc2c(C(=O)Nc3cccc(F)c3)ncn2-c2ccccc2S1(=O)=O | 13 µM
10 | COc1ccc(CNC(=O)CCC2N=C3c4ccccc4N=C(SCc4cccc(F)c4)N3C2=O)cc1 (centres undefined) | 20.4 µM
11 | CCCC#Cc1ccc([C@H]2[C@H](CO)N3C(=O)CN(C(=O)Nc4cccc(F)c4)C[C@@H]23)cc1 | 10.4 µM
12 | Cc1ccc(-c2coc(-c3ccc(NC(=O)c4cccs4)cc3)n2)c(C)c1 | 13.8 µM
13 | CCc1ccccc1-c1cccc(-n2cnnc2)c1 | 19.9 µM
14 | COc1ccc(-c2nc(NC3CCN(Cc4ccccc4)CC3)c3ccccc3n2)cc1 | 26.3 µM
15 | Cc1nc(OCC(=O)Nc2cc(F)ccc2F)c2ccccc2n1 | > 39 µM (inactive)
16 | COCCC(=O)C1Cc2nc(-c3ccccc3)sc2N1CC1CC1 (centres undefined) | 27.2 µM and 15.5 µM
17 | COc1ccc(-c2nc(NCC3CCN(Cc4ccc(C)cc4)C3)c3ccccc3n2)cc1 (centres undefined) | 13.5 µM
18 | CCCNC(=O)N1[C@H](CO)[C@@H](c2ccc(-c3ccccc3F)cc2)[C@@H]1C#N | 19.9 µM
19 | c1ccc(-c2noc(-c3ccc(N4CCC(N5CCCCC5)CC4)nc3)n2)cc1 | 18.6 µM
20 | Cc1ccc(NC(=O)N2CCN(Cc3nc(-c4ccccc4C)oc3C)CC2)cc1F | > 39 µM (inactive)
21 | O=C(CC1N=C2c3ccccc3N=C(SCc3ccc(F)cc3)N2C1=O)NCc1cccs1 (centres undefined) | 35 µM
22 | CCN1CCN(CCCNc2nc(-c3ccc(Cl)cc3)nc3ccccc23)CC1 | > 20 µM (inactive)
23 | O=C(Nc1c(C(=O)NCc2cccnc2)[nH]c2ccccc12)c1ccc(Cl)cc1 | 21.2 µM
24 | COc1ccc(-c2nc(N3CCC4(CC3)OCCO4)c3ccccc3n2)cc1 | 20.1 µM

Row | Structure (SMILES) | AC50
25 | Cc1ccc2[nH]c(C(=O)NCc3cccnc3)c(NC(=O)c3ccc(F)cc3)c2c1 | 27.6 µM
26 | O=C(c1ccc(F)cc1)N1CC(=O)N2[C@H](C1)[C@H](c1ccc(C#CCC3CCCC3)cc1)[C@@H]2CO | 10.6 µM
27 | CCCCCCC(C)(C)c1ccc(C2CC(O)CCC2CCCO)c(O)c1 (centres undefined) | 8.47 µM
28 | O=S(=O)(c1cccs1)N1CCC2(CC1)NCCN=C2NCc1cccc(F)c1 | 26.1 µM
29 | CCOc1ccccc1-c1nc(CN(c2ccc(C)cc2)S(=O)(=O)c2cccs2)c(C)o1 | 11.2 µM
30 | O=C(Cc1ccncc1)N1CCCCN2[C@H](CO)[C@H](c3ccc(C#Cc4ccccc4F)cc3)[C@@H]2C1 | 8.53 µM
31 | COc1ccc(CC(=O)Nc2ccc3c(c2)CCC(=O)N3C)c(Cl)c1 | 21.2 µM
32 | C/C=C/c1ccc(C2[C@H]3CNC[C@@H]2N3C(=O)NC2CCCCC2)cc1 (some centres undefined) | 9.23 µM and 7.74 µM
33 | O=C(Nc1cccc(F)c1)N1CCCCN2[C@H](CO)[C@H](c3ccc(C#Cc4cccnc4)cc3)[C@@H]2C1 | 2.07 µM and 1.05 µM
34 | CCc1nc(OCC(=O)N(C)c2ccccc2)c2ccccc2n1 | 24.4 µM
35 | CCc1ccc(S(=O)(=O)N2CCC3(CC2)NCCN=C3NCc2ccc(C)cc2)cc1 | 8.88 µM
36 | COc1cccc(N(Cc2nc(-c3ccc(C)cc3)oc2C)S(=O)(=O)c2ccc(C)cc2)c1 | 7.83 µM
37 | CCOC(=O)CSC1=Nc2ccccc2C2=NC(CCC(=O)NCc3ccc(OC)cc3)C(=O)N12 (centres undefined) | 27.8 µM
38 | O=C1CCc2cc(NC(=O)c3ccccc3F)ccc2N1 | 29.7 µM
39 | CCOc1ccc(-c2nc(CN(c3ccccc3OC)S(=O)(=O)c3ccccc3)c(C)o2)cc1 | 8.3 µM
40 | CCc1ccc(S(=O)(=O)N2CCC3(CC2)NCCN=C3NCc2cc(F)cc(F)c2)cc1 | 6.6 µM
41 | COc1ccc(-c2ccc(C3[C@@H]4CN(C(=O)c5ccc(F)cc5)C[C@H]3N4)cc2)cc1 (some centres undefined) | 15.8 µM and 11.3 µM
42 | Cc1cccc(S(=O)(=O)N2CCc3nc(-c4cnn(C)c4)nc(NC4CC4)c3C2)c1 | 19 µM
43 | COc1ccc(-c2nc(NCCN(C)C3CCCCC3)c3ccccc3n2)cc1 | 3.36 µM
44 | COc1ccccc1C#Cc1ccc([C@H]2[C@@H](CO)N3CCCCN(C(=O)C4CCC4)C[C@@H]23)cc1 | 18.8 µM
45 | CCCNC(=O)c1cc(-c2cnc(NCc3ccccc3)nc2)cn1C | 7.07 µM and 17.3 µM
46 | C[C@@H]1CN([C@H](C)CO)C(=O)Cc2cc(NC(=O)C3CCCCC3)ccc2O[C@H]1CN(C)Cc1ccc(Cl)c(Cl)c1 | 17.4 µM
47 | COCC(=O)N(C[C@H]1N[C@H](CO)[C@@H]1c1ccc(C2=CCCC2)cc1)C1CCCC1 | 16.3 µM
48 | C1=C(c2ccccc2)CC(c2ccccc2)=NN=C1c1ccccc1 | 15.6 µM

Row | Structure (SMILES) | AC50
49 | O=C(Cc1cccnc1)N1CC(=O)N2[C@H](CO)[C@@H](c3ccc(C4=CCCCC4)cc3)[C@H]2C1 | 25.3 µM
50 | COc1ccc(-c2nc(Nc3ccc(CN4CCCCC4)cc3)c3ccccc3n2)cc1 | 12 µM
51 | N#Cc1cccc(-c2ccc(C3[C@@H]4CN(C(=O)c5ccc6c(c5)OCO6)C[C@H]3N4)cc2)c1 (some centres undefined) | 14.5 µM and 9.62 µM
52 | CC(C)(C)NC(=O)[C@@H]1CC2CCCCC2CN1C[C@@H](O)[C@H](Cc1ccccc1)NC(=O)[C@H](CC(N)=O)NC(=O)c1ccc2ccccc2n1 (some centres undefined) | 17.8 µM
53 | CCN(c1ccccc1C)S(=O)(=O)c1cc2c3c(c1)CCC(=O)N3CCC2 | 13 µM
54 | Cc1cccc(N2CCN(C(=O)CC3Nc4c5ccccc5nc(=S)n4C3=O)CC2)c1C (centres undefined) | 26.9 µM
55 | CS(=O)(=O)N1CC(=O)N2[C@H](C1)[C@@H](c1ccc(C#CCC3CCCC3)cc1)[C@@H]2CO | 19.2 µM
56 | N#C[C@H]1[C@@H](c2ccc(-c3cccnc3)cc2)[C@@H](CO)N1C(=O)Nc1ccc(F)cc1 | 12.7 µM
57 | Cc1ccc(-c2nc(CN3CCN(C(=O)Nc4ccc(C)c(C)c4)CC3)c(C)o2)cc1 | 23.2 µM
58 | CC(C)C#Cc1ccc([C@@H]2[C@H](CO)N3C(=O)CN(S(=O)(=O)c4ccccc4)C[C@@H]23)cc1 | > 39 µM (inactive)
59 | O=c1c(O)c(-c2ccc(O)c(O)c2)oc2cc(O)cc(O)c12 | 17.6 µM
60 | Cc1cc(C(F)(F)F)nn1CC(=O)N1CCCC1c1cc(C(C)C)on1 (centres undefined) | 32.6 µM
61 | C[C@H]1CN([C@@H](C)CO)C(=O)c2cccc(NS(=O)(=O)c3ccc(F)cc3)c2O[C@H]1CN(C)Cc1ccc(Cl)c(Cl)c1 | 19.2 µM and 11.7 µM
62 | O=S(=O)(c1ccc(Cl)s1)N1CCC2(CC1)NCCN=C2NCc1ccccc1F | 17.9 µM
63 | COc1ccc(-c2nc(NCC3CCN(CCc4ccc(F)cc4)CC3)c3ccccc3n2)cc1 | 12.2 µM
64 | COc1ccc(-c2nc(NC(C)C)c3ccccc3n2)cc1 | > 39 µM (inactive)
65 | CC(C)CC#Cc1ccc([C@@H]2[C@@H](CO)N3CCCCN(C(=O)Nc4ccccc4)C[C@@H]23)cc1 | 22.5 µM and 15.4 µM
66 | Cc1ccc(S(=O)(=O)N2CCC3(CC2)NCCN=C3NCc2ccc(C(F)(F)F)cc2)c(C)c1 | 9.08 µM
67 | Cc1ccc(CNC2=NCCNC23CCN(S(=O)(=O)c2cc(C)cc(C)c2)CC3)cc1 | 23.4 µM
68 | CCc1c2c(nc3ccc(OC(=O)N4CCC(N5CCCCC5)CC4)cc13)-c1cc3c(c(=O)n1C2)COC(=O)[C@]3(O)CC | 21 µM
69 | COc1cccc(NC(=O)N2CC(=O)N3[C@@H](CO)[C@@H](c4ccc(C#CCC5CCCC5)cc4)[C@@H]3C2)c1 | 22.5 µM
70 | O=C(CCC1N=C2c3ccccc3N=C(SCc3ccccc3F)N2C1=O)NCc1cccs1 (centres undefined) | 22.4 µM
71 | CCc1ccccc1S(=O)(=O)N1CCC(C(=O)NCCc2csc(-c3ccccc3)n2)CC1 | 17.5 µM
72 | COc1ccc(C#Cc2ccc([C@@H]3[C@H](CO)N4C(=O)CN(C(=O)NC(C)C)C[C@@H]34)cc2)cc1 | 28.3 µM

Row | Structure (SMILES) | AC50
73 | COc1ccccc1C#Cc1ccc([C@@H]2[C@@H](CO)N3CCCCN(C(=O)C4CCC4)C[C@H]23)cc1 | 28.8 µM and 14.6 µM
74 | Clc1ccc(CNc2nc(SCc3cccc(Cl)c3)nc3ccccc23)cc1 | 5.24 µM
75 | CCCCNC(=O)CCC1N=C2c3ccccc3N=C(SCc3ccc(F)cc3)N2C1=O (centres undefined) | 24.8 µM
76 | CS(=O)(=O)N1CCc2sc(C(=O)Nc3ccc(Cl)cc3)cc21 | 3.36 µM
77 | CCc1nc(OCC(=O)Nc2ccccc2C(=O)OC)c2ccccc2n1 | > 39 µM (inactive)
78 | O=C(CCC1N=C2c3ccccc3N=C(SCc3cccc(F)c3)N2C1=O)NCc1ccccc1 (centres undefined) | 27.4 µM
79 | CCOc1ccccc1N(Cc1nc(-c2ccccc2)oc1C)S(=O)(=O)c1cccs1 | 7.76 µM
80 | COc1ccccc1N1CCN(C(=O)CC2Nc3c4ccccc4nc(=S)n3C2=O)CC1 (centres undefined) | 20.3 µM
81 | CN(C)C(=O)c1cccc(-c2ccc3c(c2)[C@@H]2[C@@H](CCN2C(=O)Cc2ccccc2)[C@@H](CO)N3)c1 | 17.6 µM
82 | COc1ccc(-c2nc(Cn3nnc(-c4nc(-c5ccncc5)no4)c3C)c(C)o2)cc1 | > 39 µM (inactive)
83 | CCc1ccc(N2CCC(C(=O)NCCc3c[nH]c4ccc(C)cc34)C2=O)cc1 (centres undefined) | 22.9 µM
84 | COc1cccc(-c2nc3c(s2)CN(S(=O)(=O)c2ccc(C)cc2)CC3)c1 | 25.9 µM
85 | CO[C@@H]1CCN(S(=O)(=O)N(C)C)C[C@@H]1Cc1cccc(C)c1 | 23.5 µM
86 | Cc1ccc(N(Cc2nc(-c3ccccc3)oc2C)S(=O)(=O)c2cccs2)cc1 | 3.53 µM
87 | Fc1cccc(CSc2nc(NCc3ccc(Cl)cc3)c3ccccc3n2)c1 | 14 µM
88 | Cc1ccc(NC(=O)CN2CCC3(CC2)N=C(c2cccc(Cl)c2)C(=O)N3)cc1 | 28 µM
89 | CC(=O)O.CC(=O)O.[Cl][Pt+2][Cl].[NH-]C1CCCCC1.[NH2-] | 25.4 µM
90 | COc1ccc(OC)c(S(=O)(=O)N2CCc3c([nH]c4ccccc34)C2c2cccc(F)c2)c1 (centres undefined) | > 39 µM (inactive)
91 | CCCCNC(=O)CC1N=C2c3ccccc3N=C(SCc3ccc(C)cc3)N2C1=O (centres undefined) | 10.4 µM
92 | CC(=O)N(C)C1(c2ccccc2)CCN(CCC[C@]2(c3ccc(Cl)c(Cl)c3)CCCN(C(=O)c3ccccc3)C2)CC1 | 12 µM
93 | Cc1cccc(CNC2=NCCNC23CCN(S(=O)(=O)c2cc(C)cc(C)c2)CC3)c1 | 25.7 µM
94 | O=C(Nc1cccc(F)c1)N1CCCCN2[C@@H](CO)[C@@H](c3ccc(C#Cc4cccnc4)cc3)[C@@H]2C1 | > 42 µM (inactive)
